The text below walks through data of patent publication US10611789B2, “Crystalline form A of rebaudioside D, and preparation method and application therefor” (ZHUCHENG HAOTIAN PHARM CO., LTD, priority 2015, dated 2020).

Assay type in all cases: physicochemical
Data set [1] is described as follows: XRPD crystal form stability on storage. How it is done:
XRPD analysis: a Bruker D8 advance diffractometer from German Brook Instruments Co. LTD was used for detection at room temperature, using Cu-Kα ray (λ=1.5418 Å) with 2θ angle scanning from 3° to 40° at a scanning speed of 0.2°/second.
The crystal form A of Rebaudioside D prepared in the above examples was subjected to XRPD analysis under the conditions of 25° C. and RH≤30%. The analysis results are shown in FIG. 6, and it can be seen from FIG. 6 that the crystal form thereof is unchanged and has a good stability.
The crystal form A of Rebaudioside D prepared in the above examples was stored for 6 months under the conditions of 25° C. and RH≤60%. The analysis results are shown in FIG. 7, and it can be seen from FIG. 7 that the crystal form thereof is unchanged and has a good stability.

A short description of data set [2]: water solubility of crystal form A.
A short description of data set [3]: dynamic vapor sorption (DVS) analysis. As to conditions: 25° C. How it is done:
DVS analysis: a DVS Intrinsic Dynamic Moisture Adsorption Device of UK SMS Instrument Company was used for detection. The measuring temperature: 25° C.; the relative humidity: 0-95%.

Data set [4] is described as follows: HPLC chemical stability on storage. As to conditions: after six months of storage (25° C., relative humidity 60%). How it is done:
HPLC analysis: a 1260 infinity liquid chromatograph from American Agilent Technologies was used for determination. Preparation method for the sample solution: 25-50 mg of the Rebaudioside D sample was accurately weighed, and placed in a 25 ml of volumetric flask, and then a solution of water-acetonitrile (7:3, v/v) was added for dissolution and the volume was set to the scale. The fomulation method for sodium phosphate buffer (specification: 10 mmol/L, pH: 2.6): 2.76 g of sodium dihydrogen phosphate was dissolved in 2 L of water, phosphoric acid was added and the pH was adjusted to 2.6. Chromatographic column: Phenomenex's Luna 5μ C18 (2) 100 A column. Injection volume: 5 μl. Flow rate: 1.0 mL/min. Column temperature: 40° C. Detector: 210 nm of UV detection. Mobile phase: acetonitrile and sodium phosphate buffer (specification: 10 mmol/L, pH: 2.6) at a ratio of 32:68.

≈ marks a conversion by molar mass, not a printed value.

The term solubility denotes the dissolved amount per volume that the medium holds. Low readings indicate little dissolved substance, high ones much dissolved substance. As to `C=C1C[C@@]23CCC4[C@@](C)(CCC[C@@]4(C)C(=O)O[C@@H]4OC(CO)[C@@H](O)C(O)C4OC4OC(CO)[C@@H](O)C(O)C4O)C2CC[C@]1(OC1OC(CO)C(O)C(OC2OC(CO)C(O)C(O)C2O)C1OC1OC(CO)C(O)C(O)C1O)C3` (stereo partly drawn) [crystal form A of Rebaudioside D, Rebaudioside D], the “crystal form by XRPD” value in data set [1] (25° C. and RH≤30%) is listed as “unchanged”. In addition, the “crystal form by XRPD after storage” value in data set [1] (stored for 6 months, 25° C. and RH≤60%) is “unchanged”. Besides, the solubility in data set [2] was about 600 µg/mL (≈ 531 µM). Moreover, the “mass percentage of absorbed moisture” value is on record as 0-3.4% in data set [3] (within a relative humidity of 0-40%) and 3.4-7.1% in data set [3] (within a relative humidity of 40-100%). For the same compound, the “variation of HPLC purity compared with the raw material” value in data set [4] is listed as “less than 0.5%”.
